For test [1], the system named is HL-60 cells. The experiment in a line: HL-60 cell growth/proliferation, cells counted with a hemocytometer. The class given is cell-based, human. The settings on record: for cell density / inhibition of cell growth (in words): Example 3C; for cell density: starting density 2×10^5 cells/ml; for inhibition of cell growth (in words): time course to 108 hours. The procedure:
(§1) Human myelocytic leukemia HL-60 cells (20-45 passages (American Type Culture Collection, Rockville, Md., accession no. CCL 240) were obtained and grown in RPMI 1640 medium (Sigma Chemical Co., St. Louis, Mo.) containing 10% fetal calf serum at 37° C. in 5% CO2 incubator at a cell density of 2×10^5 cells/mi. The cells were washed once with phosphate buffered saline (PBS) and resuspended in serum-free media containing insulin (5 mg/liter) and transferrin (5 mg/liter) for 2-3 hours before treatment with various compounds.
HL-60 cells were treated with 3 μM of Cn-L-t-APPD with acyl chain lengths of C6, C8, C10, C12, C14, C16, and C18 (m=4, 6, 8, 10, 12, 14 and 16) in fresh ehtanol solution or with an ethanol vehicle and cell growth was determined following three days of treatment. Cell growth was quantified using a hemocytometer. Cell viability was judged by the ability to exclude trypan blue dye. Viability was always more than 80% unless otherwise described.
HL-60 cells (starting cell density of 2×10^5 cells/ml) were treated with different concentrations of C14-L-t-APPD and cells were counted following 24 and 72 hours of treatment. The results are representative of three experiments. A 1μM dose of C14-L-t-APPD had little or no effect on cell growth at 24 or 72 hours (approximately 105% and 130% of control, respectively). A 2μM dose inhibited cell growth to approximately 65% of the control at both 24 and 72 hours. […] The IC50% was approximately 2 μM (10 fmol/cell). IC50% is the concentration of test compound that causes 50% inhibition of cell growth in comparison with controls. Thus, similar to results with C2-ceramide, C14-APPD inhibited cell proliferation at different durations of treatment.
HL-60 cells (starting cell density of 2×10^5 cells/ml) were treated with 3 μM Cn-L-t-APPD derivatives with N-acyl chain lengths of C6, C8, C10, C12, C14, C16, and C18 (m=4,6,8,10, 12, 14, and 16) and cells were counted at 0, 12, 36, 60, 84 and 108 hours post treatment. The results are representative of 3 experiments.
N-acyl derivatives of 2-amino-1-(4'-nitrophenyl)-1,3-propanediol (Cn-D-t-ANPPD) were tested to determine the effects of chain length on HL-60 cell growth as described in Examples 3 A. HL-60 cells (at a starting cell density of 2×10^5 cells/ml) were treated with 3 μM of the diff analogs (C6, C8, C10, C12, C14, C16 and C18) of Cn-D-t-ANPPD, and cell growth was determined at three days. The control received no Cn-D-t-ANPPD. Treatment of HL-60 cells with C2-ceramide is included for comparison.
HL-60 cells were treated with the indicated concentrations and cell growth was determined following three days of treatment as described in Example 3B.
The suitability of phenylaminopropanediol derivatives as analogs of ceramide allowed further investigation of the structural requirements for ceramide-mediated biology. For these experiments, C14 (N-myristoyl) derivatives of different phenylaminoalcohols were synthesized and examined for their biologic activity. HL-60 cells (starting cell density of 2×10^5 cells/ml) were treated with 3 μM of C14 derivatives C14-L-t-APPD, C14-D-t-ANPPD, C14-D-e-APP-1, C14-L-e-APP-1, C14-APP-3 and C14-D-APP3. The structures of these compounds are provided in Table I. Cell growth was determined at 3 days as described in Example 3A. The results shown are averages of two determinations, and are representative of five different experiments.
and C14-L-e-APP-1 HL-60 cells were treated as described in Example 3B. growth was determined after 3 days of treatment.

Test [2] concerns HL-60 cells. The experiment in a line: HL-60 differentiation, H2O2 generation. It counts as cell-based, human. The note with it: for H2O2 generation: 2 μM C2-ceramide alone. How it is done:
as §1
Therefore, 3 μM C14-L-t-APPD was applied to HL-60 cells either alone or in combination with subthreshold levels (0.3 nM) of 1,25-dihydroxyvitamin D3 (D3), and cell differentiation was determined at 60 and 108 hours following treatment by quantitating […] generation, a marker of HL-60 differentiation. Subthreshold levels of D3 refers to levels of D3 that are too low to induce differentiation of HL60 cells.
H2 O2 production was quantitated as described in Goodwin, B. J. and Weinberg, J. B., J. Clin. Invest. 70:699-706 (1982) and Pick, E. and Mizel, D. J. Immunol. Methods 46: 211-226 (1981). For comparison, HL60 cell differentiation obtained with 2 μM C2-ceramide alone and 0.3 nM vitamin D3 are were also determined.

Setting [3] is: Example 3A, 3 μM Cn-L-t-APPD, three days.
[4] abbreviates: Example 5, 3 μM C14 derivatives, 3 days.
The mark [5] stands for this setting: Homo sapiens, HL-60, 72 h, Example 4A, Table II, 3 μM Cn-D-t-ANPPD (C2-ceramide concentration not given), three days, read-out: CELL GROWTH (% OF CONTROL).
The mark [6] stands for this setting: Example 4A, Table II, 3 μM Cn-D-t-ANPPD (C2-ceramide concentration not given), three days.

Where two headings read alike, the source gives them in different places.

Regarding `CCCCCCCCCCCC(=O)N[C@@H](CO)[C@@H](O)c1ccccc1` [C12-L-t-APPD], in test [1] (setting [3]), the “cell growth, % of control” value was “approximately 40%”. Further, the cell density in test [1] (3 μM, 60 hours) is 300000 mL⁻¹; in test [1] (3 μM, 84 hours) it was 300000 mL⁻¹; in test [1] (3 μM, 108 hours), 600000 mL⁻¹. Moreover, the “inhibition of cell growth (in words)” value in test [1] (3 μM) is on record as “able to inhibit cell growth by significant amounts”.

Regarding `CCCCCCCCCCCCCCCC(=O)N[C@@H](CO)[C@@H](O)c1ccccc1` [C16-L-t-APPD], the “cell growth, % of control” value in test [1] (setting [3]) is recorded as about 65%. The cell density in test [1] (3 μM, 60 hours) is 400000 mL⁻¹; in test [1] (3 μM, 84 hours) it was 700000 mL⁻¹; in test [1] (3 μM, 108 hours), 1.2e+06 mL⁻¹. For the same molecule, the “inhibition of cell growth (in words)” value in test [1] (3 μM) is “able to inhibit cell growth by significant amounts”.

In the case of `CCCCCCCCCCCCCC(=O)N[C@@H](C)[C@H](O)c1ccccc1` (relative stereo) [C14-DL-e-APP-1], the “cell growth, % of control” value in test [1] (setting [4]) came out at 60%.

Take `CCCCCC(=O)N[C@@H](CO)[C@@H](O)c1ccccc1` [C6-L-t-APPD]: in test [1] (setting [3]), the “cell growth, % of control” value is on record as 105%. For the same molecule, the cell density was found to be 800000 mL⁻¹ in test [1] (3 μM, 60 hours); 1.4e+06 mL⁻¹ in test [1] (3 μM, 84 hours); 2.4e+06 mL⁻¹ in test [1] (3 μM, 108 hours).

`CCCCCCCCCCCCCCCCCC(=O)N[C@H](CO)[C@H](O)c1ccc([N+](=O)[O-])cc1` [C18-D-t-ANPPD]: the activity at 3 µM in test [1] (setting [5]) turned out to be 82%.

For the molecule `CCCCCCCCCCCCCCCCCC(=O)N[C@@H](CO)[C@@H](O)c1ccccc1` [C18-L-t-APPD], in test [1] (setting [3]), the “cell growth, % of control” value was found to be 116%. Besides, the cell density in test [1] (3 μM, 60 hours) was found to be 800000 mL⁻¹; in test [1] (3 μM, 84 hours), 1.4e+06 mL⁻¹; in test [1] (3 μM, 108 hours), 2.3e+06 mL⁻¹.

For `CCCCCC(=O)N[C@H](CO)[C@H](O)c1ccc([N+](=O)[O-])cc1` [C6-D-t-ANPPD], the activity at 3 µM in test [1] (setting [5]) amounted to 70%.

For `CCCCCCCC(=O)N[C@@H](CO)[C@@H](O)c1ccccc1` [C8-L-t-APPD], the “cell growth, % of control” value in test [1] (setting [3]) is 104%. In addition, the cell density turned out to be 800000 mL⁻¹ in test [1] (3 μM, 60 hours); 1.4e+06 mL⁻¹ in test [1] (3 μM, 84 hours); 2.4e+06 mL⁻¹ in test [1] (3 μM, 108 hours).

Consider `CCCCCCCC(=O)N[C@H](CO)[C@H](O)c1ccc([N+](=O)[O-])cc1` [C8-D-t-ANPPD], for which, in test [1] (setting [5]), the activity at 3 µM stood at 70%.

For `CCCCCCCCCCCCCC(=O)N[C@H](CO)[C@H](O)c1ccc([N+](=O)[O-])cc1` [C14-D-t-ANPPD], the “CELL GROWTH (% OF CONTROL)” value in test [1] (Example 4A, Table II, 3 μM Cn-D-t-ANPPD (C2-ceramide concentration not given), three days, listed as C14 chain analog) is “about 1 % OF CONTROL”. Further, the activity at 3 µM in test [1] (setting [5]) turned out to be 1%; in test [1] (Homo sapiens, HL-60, 72 h, Example 4B, Table III, 3 μM, three days, read-out: CELL GROWTH (% OF CONTROL)) it was 3%. The activity at 0.1 µM in test [1] (Homo sapiens, HL-60, 72 h, Example 4B, Table III, 0.1 μM, three days, read-out: CELL GROWTH (% OF CONTROL)) was 110%. Besides, in test [1] (Homo sapiens, HL-60, 72 h, Example 4B, Table III, 0.2 μM, three days, read-out: CELL GROWTH (% OF CONTROL)), the activity at 0.2 µM turned out to be 112%. Also, in test [1] (Homo sapiens, HL-60, 72 h, Example 4B, Table III, 0.3 μM, three days, read-out: CELL GROWTH (% OF CONTROL)), the activity at 0.3 µM is 113%. Also, the activity at 0.5 µM in test [1] (Homo sapiens, HL-60, 72 h, Example 4B, Table III, 0.5 μM, three days, read-out: CELL GROWTH (% OF CONTROL)) came to 105%. The activity at 1 µM in test [1] (Homo sapiens, HL-60, 72 h, Example 4B, Table III, 1 μM, three days, read-out: CELL GROWTH (% OF CONTROL)) is 85%. In test [1] (Homo sapiens, HL-60, 72 h, Example 4B, Table III, 2 μM, three days, read-out: CELL GROWTH (% OF CONTROL)), the activity at 2 µM turned out to be 12%. Besides, the activity at 4 µM in test [1] (Homo sapiens, HL-60, 72 h, Example 4B, Table III, 4 μM, three days, read-out: CELL GROWTH (% OF CONTROL)) is 2%. Moreover, the IC50 in test [1] (Homo sapiens, HL-60, 72 h, Example 4B, three days, read-out: concentration for 50% inhibition of cell growth) was about 1.5 µM.

In test [1] (C2-ceramide, concentration not given, 108 hours), `CCCCCCCCCCCCC/C=C/[C@@H](O)[C@H](CO)NC(C)=O` [C2-ceramide, N-acetyl-C18-sphingosine, reference compound] yielded a cell density of 200000 mL⁻¹. Besides, the “CELL GROWTH (% OF CONTROL)” value in test [1] (setting [6]) stood at 20 % OF CONTROL. For the same molecule, the “cell growth, % of control” value in test [1] (setting [4]) was determined as 20%. In addition, the H2O2 generation entry in test [2] (60 hours) and in test [2] (108 hours) was “approximately 0.3 nmol H2O2 /10^5 cells” each time. Besides, in test [2] (2 μM C2-ceramide in combination with 1,25-dihydroxyvitamin D3), the “H2O2 generation, combination” value is “approximately 0.9 nmol/10^5 cells”.

Regarding `CCCCCCCCCCCCCC(=O)N[C@H](CO)Cc1ccccc1` [C14-LAPP-3], in test [1] (setting [4]), the “cell growth, % of control” value was found to be 15%.

Consider `CCCCCCCCCCCCCCCC(=O)N[C@H](CO)[C@H](O)c1ccc([N+](=O)[O-])cc1` [C16-D-t-ANPPD], for which the “CELL GROWTH (% OF CONTROL)” value in test [1] (setting [6]) was about 5 % OF CONTROL. Further, the activity at 3 µM in test [1] (setting [5]) was found to be 5%.

Turning to `CCCCCCCCCCCC(=O)N[C@H](CO)[C@H](O)c1ccc([N+](=O)[O-])cc1` [C12-D-t-ANPPD], the “CELL GROWTH (% OF CONTROL)” value in test [1] (Example 4A, Table II, 3 μM Cn-D-t-ANPPD (C2-ceramide concentration not given), three days, listed as C12 chain analog) is recorded as “about 4 % OF CONTROL”. In test [1] (setting [5]), the activity at 3 µM was found to be 4%.

For the molecule `CCCCCCCCCC(=O)N[C@@H](CO)[C@@H](O)c1ccccc1` [C10-L-t-APPD], the “cell growth, % of control” value in test [1] (setting [3]) was 90%. Besides, the cell density amounted to 800000 mL⁻¹ in test [1] (3 μM, 60 hours); 1.2e+06 mL⁻¹ in test [1] (3 μM, 84 hours); 2e+06 mL⁻¹ in test [1] (3 μM, 108 hours). Besides, the inhibition at 3 µM in test [1] (Homo sapiens, HL-60, 72 h, Example 3A, 3 μM, three days, read-out: reduction of cell growth as compared to a control) was about 10%.

`CCCCCCCCCCCCCC(=O)N[C@H](C)[C@H](O)c1ccccc1` [C14-D-t-APP-1]: the “cell growth, % of control” value in test [1] (setting [4]) is reported as 49%.

As to `CCCCCCCCCCCCCC(=O)N[C@@H](CO)Cc1ccccc1` [C14-DAPP-3], the “cell growth, % of control” value in test [1] (setting [4]) is listed as 14%.

For the molecule `CCCCCCCCCC(=O)N[C@H](CO)[C@H](O)c1ccc([N+](=O)[O-])cc1` [C10-D-t-ANPPD], the activity at 3 µM in test [1] (setting [5]) was 68%.
